# Laboratory results: ChEMBL document CHEMBL1201862, “PubChem BioAssay data set” (2004)
# Values joined by “and” are separate entries in the source; they are usually repeats but may differ in a detail not shown here. Identical values can stand only once. Counter-ions that a name gives are not always drawn.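 Five compound concentrations were applied to cells in 96-well plates for 48 hours; endpoints were derived by simple linear interpolation of the resulting dose-response curve. GI50: concentration for 50% inhibition of growth.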 Active and inactive are the calls of the source. Rule as the data show it: active = GI50 up to about 1.1 µM and inactive = higher.
# Experiments:
# Assay in all cases: NCI anticancer screen, dose series, 48 h
# COLO 205 = test system: COLO 205
# DU-145 = test system: DU-145
# Malme-3M = test system: Malme-3M
# MOLT-4 = test system: MOLT-4
# M14 = test system: M14
# OVCAR-3 = test system: OVCAR-3
# SNB-19 = test system: SNB-19
# HL-60 = test system: HL-60
# MDA-MB-231 = test system: MDA-MB-231
# HCT-15 = test system: HCT-15
# SK-MEL-28 = test system: SK-MEL-28
# HOP-62 = test system: HOP-62
# UACC-62 = test system: UACC-62
# MDA-MB-435 = test system: MDA-MB-435
# RXF 393 = test system: RXF 393
# OVCAR-8 = test system: OVCAR-8
# SW-620 = test system: SW-620
# HT-29 = test system: HT-29
# RPMI-8226 = test system: RPMI-8226
# SF-539 = test system: SF-539
Structure (SMILES),GI50 (COLO 205),GI50 (DU-145),GI50 (Malme-3M),GI50 (MOLT-4),GI50 (M14),GI50 (OVCAR-3),GI50 (SNB-19),GI50 (HL-60),GI50 (MDA-MB-231),GI50 (HCT-15),GI50 (SK-MEL-28),GI50 (HOP-62),GI50 (UACC-62),GI50 (MDA-MB-435),GI50 (RXF 393),GI50 (OVCAR-8),GI50 (SW-620),GI50 (HT-29),GI50 (RPMI-8226),GI50 (SF-539)
O=C(O)/C(O)=C\C(=O)c1ccc(Br)cc1,> 100 µM (inactive),> 100 µM (inactive),> 100 µM (inactive),> 100 µM (inactive),> 100 µM (inactive),> 100 µM (inactive),> 100 µM (inactive),> 100 µM (inactive),> 100 µM (inactive),> 100 µM,> 100 µM (inactive),> 100 µM (inactive),> 100 µM (inactive),> 100 µM (inactive),> 100 µM (inactive),> 100 µM (inactive),> 100 µM (inactive),> 100 µM (inactive),> 100 µM (inactive),–
CCCCC(O)(c1ccccc1)C(O)(c1ccccc1)c1c(F)c(F)c(F)c(F)c1F (configuration not stated),> 10 µM (inactive),48.1 µM (inactive),16.7 µM (inactive),16.8 µM (inactive),30.3 µM (inactive),17.4 µM (inactive),41.8 µM (inactive),21.3 µM (inactive),16 µM (inactive),13.5 µM,27 µM (inactive),17.5 µM (inactive),17.4 µM (inactive),31.8 µM (inactive),–,22.1 µM (inactive),25.2 µM (inactive),14.1 µM (inactive),18.2 µM (inactive),–
O=C(/C=C/c1ccc(O)c([N+](=O)[O-])c1)CC(=O)/C=C/c1ccc(O)c([N+](=O)[O-])c1,47.4 µM (inactive),28.4 µM (inactive),–,–,65.8 µM (inactive),26.6 µM (inactive),88.9 µM (inactive),21.7 µM (inactive),23.4 µM (inactive),38.5 µM,33.9 µM (inactive),48.9 µM (inactive),88.1 µM (inactive),36.1 µM (inactive),44.4 µM (inactive),19.8 µM (inactive),37.1 µM (inactive),42.7 µM (inactive),14.4 µM (inactive),> 100 µM (inactive)
COc1ccc(C2CC(=O)CC(c3ccc(OC)cc3)C23C(=O)NC(=O)NC3=O)cc1 (configuration not stated),32.1 µM (inactive),48 µM (inactive),25.9 µM (inactive),19 µM (inactive),52.5 µM (inactive),19.3 µM (inactive),35.3 µM (inactive),27 µM (inactive),39.1 µM (inactive),67.8 µM,17.2 µM (inactive),13.8 µM (inactive),64.1 µM (inactive),22.7 µM (inactive),45.9 µM (inactive),32.2 µM (inactive),18.7 µM (inactive),33.2 µM (inactive),–,> 100 µM (inactive)
O=C(O)CCCC(=O)Nn1c(Cc2ccc(Cl)cc2)n[nH]c1=O,> 100 µM (inactive),> 100 µM (inactive),> 100 µM (inactive),> 100 µM (inactive),> 100 µM (inactive),> 100 µM (inactive),–,26.9 µM (inactive),> 100 µM (inactive),> 100 µM,> 100 µM (inactive),> 100 µM (inactive),> 100 µM (inactive),> 100 µM (inactive),> 100 µM (inactive),> 100 µM (inactive),> 100 µM (inactive),> 100 µM (inactive),> 100 µM (inactive),–
Cc1cc2nc(N3C(=O)/C(=C/c4ccc(Oc5ccccc5)cc4)N=C3c3ccccc3)sc2cc1C,20.9 µM (inactive),> 100 µM (inactive),70.6 µM (inactive),30.2 µM (inactive),51.8 µM (inactive),59.3 µM (inactive),> 100 µM (inactive),23.6 µM (inactive),> 100 µM (inactive),29.4 µM,69.7 µM (inactive),> 100 µM (inactive),35.4 µM (inactive),19.5 µM (inactive),58.9 µM (inactive),71.8 µM (inactive),28.2 µM (inactive),31.6 µM (inactive),24.4 µM (inactive),–
COc1ccc(C2=Cc3nc2c(-c2ccccc2)c2ccc([nH]2)c(-c2ccccc2)c2nc(c(-c4ccccc4)c4ccc([nH]4)c3-c3ccccc3)C=C2)cc1,> 100 µM (inactive),> 100 µM (inactive),> 100 µM (inactive),> 100 µM (inactive),> 100 µM (inactive),> 100 µM (inactive),48.2 µM (inactive),> 100 µM (inactive),> 100 µM (inactive),> 100 µM,> 100 µM (inactive),> 100 µM (inactive),> 100 µM (inactive),> 100 µM (inactive),> 100 µM (inactive),> 100 µM (inactive),> 100 µM (inactive),> 100 µM (inactive),–,> 100 µM (inactive)
COC(=O)c1cc(C)ccc1C1CN=NC12Cc1ccc(C)cc1C2=O (configuration not stated),15.8 µM (inactive),82.8 µM (inactive),25.1 µM (inactive),23.1 µM (inactive),38.3 µM (inactive),36.3 µM (inactive),55.2 µM (inactive),13 µM (inactive),63.8 µM (inactive),40.1 µM,> 100 µM (inactive),> 100 µM (inactive),54.7 µM (inactive),32.2 µM (inactive),59.6 µM (inactive),56.4 µM (inactive),53.2 µM (inactive),41.5 µM (inactive),–,60.4 µM (inactive)
Cn1c([C@H](C#N)C(=O)c2cc(O)ccc2[N+](=O)[O-])nc2ccccc21,> 100 µM (inactive),> 100 µM (inactive),17.2 µM (inactive),4.2 µM (inactive),> 100 µM (inactive),> 100 µM (inactive),> 100 µM (inactive),> 100 µM (inactive),> 100 µM (inactive),> 100 µM,> 100 µM (inactive),> 100 µM (inactive),> 100 µM (inactive),9.51 µM (inactive),–,> 100 µM (inactive),–,> 100 µM (inactive),> 100 µM (inactive),> 100 µM (inactive)
COC(=O)[C@@H]1C[C@@H](O)CN1C(=O)c1ccc([N+](=O)[O-])cc1[N+](=O)[O-],50 µM (inactive),> 100 µM (inactive),–,> 100 µM (inactive),> 100 µM (inactive),39.2 µM (inactive),> 100 µM (inactive),> 100 µM (inactive),> 100 µM (inactive),> 100 µM,> 100 µM (inactive),> 100 µM (inactive),> 100 µM (inactive),> 100 µM (inactive),> 100 µM (inactive),> 100 µM (inactive),> 100 µM (inactive),51.2 µM (inactive),> 100 µM (inactive),> 100 µM (inactive)
CN(C)CCOC1(Cc2ccc(F)cc2)CCC(C(C)(C)C)CC1 (configuration not stated),2.03 µM (inactive) and 2.15 µM (inactive),9.2 µM (inactive) and 9.44 µM (inactive),4.38 µM (inactive) and 2.84 µM (inactive),3.13 µM (inactive) and 2.61 µM (inactive),1.67 µM (inactive) and 2.05 µM (inactive),8.67 µM (inactive) and 13.4 µM (inactive),7.31 µM (inactive) and 11.9 µM (inactive),2.84 µM (inactive) and 2.93 µM (inactive),9.62 µM (inactive) and 10.5 µM (inactive),8.13 µM and 6.81 µM,6.05 µM (inactive) and 4.17 µM (inactive),7 µM (inactive) and 6.82 µM (inactive),4.36 µM (inactive) and 6.52 µM (inactive),3.51 µM (inactive) and 4.54 µM (inactive),0.857 µM (active),11.2 µM (inactive) and 12.8 µM (inactive),4.37 µM (inactive) and 7.36 µM (inactive),2.88 µM (inactive) and 2.7 µM (inactive),2.3 µM (inactive) and 2.48 µM (inactive),–
COC(=O)[C@@H]1COC(C(C)(C)C)N1C(=O)C(c1ccccc1)c1ccccc1 (some centres not stated),61.7 µM (inactive),> 100 µM (inactive),> 100 µM (inactive),38.7 µM (inactive),52 µM (inactive),39.2 µM (inactive),40.9 µM (inactive),45.3 µM (inactive),45.2 µM (inactive),35.4 µM,> 100 µM (inactive),> 100 µM (inactive),44.1 µM (inactive),36.7 µM (inactive),13.2 µM (inactive),44.1 µM (inactive),43.8 µM (inactive),55.8 µM (inactive),–,28.7 µM (inactive)
c1csc(-c2nccc3c2[nH]c2ccccc23)c1,14.8 µM (inactive),27.9 µM (inactive),24.2 µM (inactive),22.2 µM (inactive),17.8 µM (inactive),20.5 µM (inactive),27.7 µM (inactive),29.3 µM (inactive),20.6 µM (inactive),20.4 µM,25.6 µM (inactive),18.3 µM (inactive),30.2 µM (inactive),18.3 µM (inactive),16.3 µM (inactive),20.5 µM (inactive),21 µM (inactive),15.1 µM (inactive),–,16.4 µM (inactive)
CC[C@]12CN3CCc4c([nH]c5ccccc45)[C@@](C(=O)OC)(c4cc5c(cc4OC)N(C)[C@H]4[C@@](O)(C(=O)OC)[C@H](OC(C)=O)[C@]6(CC)C=CCN7CC[C@]54[C@@H]76)CC(C3)[C@H]1O2 (some centres not stated) [VINLEUROSINE SULFATE],< 0.01 µM (active),< 0.01 µM (active),–,< 0.0156 µM (active),0.171 µM (active),0.0104 µM (active),0.0553 µM (active),< 0.01 µM (active),0.291 µM (active),0.449 µM,0.254 µM (active),0.1 µM (active),0.0368 µM (active),< 0.01 µM (active),0.158 µM (active),0.449 µM (active),< 0.0208 µM (active),< 0.0172 µM (active),0.0581 µM (active),0.039 µM (active)
